The record followed here is US20210147571A1, “MONOCLONAL ANTIBODY TARGETING HUMAN TUMOR STEM CELLS AND USE THEREOF” (Suzhou Bojuhua Biomedical Technology Co. Ltd, priority 2017, published 2021).

Assay [1] concerns Bel7402-V13 transplanted tumor. Nature of the assay: human liver cancer transplanted tumor treated with Hetuzumab H5L11. It is filed as in vivo, nude mice. Conditions: cisplatin 0.3 mg/kg, day 36. On the procedure: Specifically, the sphere cells of the human liver cancer cell line Bel7402-V13 were harvested and inoculated subcutaneouly into nude mice at 30000 cells/mouse. […] The antibody treatments were started on the second day after inoculation of cancer cells. The experimental group and the control group were treated by intraperitoneal injection. The antibody treatments were performed for 36 days. The chemotherapeutic drug group was treated for 4 weeks, twice a week. The major and minor diameters of the subcutaneously transplanted tumor were measured twice a week. The tumor volume was calculated with the formula V=(π/6)×(major diameter×minor diameter×minor diameter). The change in tumor volume in each group was observed.

Assay [2] deals with SPCA-1 cells. Nature of the assay: CCK8 drug resistance (cisplatin IC50) of flow-sorted cells. It is filed as cell-based, human. How it is done:
In order to detect the drug resistance of Hetumomab^+ lung cancer cells, Hetumomab^+ cells, parental cells and Hetumomab^− cells obtained by flow sorting sphere cells of human lung cancer cells SPCA-1 were seeded at 5000 cells/well in a 96-well plate. […] Therefore, Hetumomab^+ lung cancer cells have stronger chemotherapeutic drug resistance than the parental cells and Hetumomab^− cells.

A further assay has as its system Bel7402-V13 cells. The assay is described as above. It is filed as cell-based, human. On the procedure: In order to detect the drug resistance of Hetumomab^+ liver cancer cells, Hetumomab^+ cells, parental cells and Hetumomab^− cells obtained by flow sorting sphere cells of human liver cancer cells Bel7402-V13 were seeded at 5000 cells/well in a 96-well plate. Each group of cells was cultured in a complete medium containing 8 different concentrations, i.e., 0 μg/mL, 0.0625 μg/mL, 0.125 μg/mL, 0.25 μg/mL, 0.5 μg/mL, 1 μg/mL, 2 μg/mL, and 4 μg/mL, of cisplatin. The medium was changed once every 3 days, and after 7 days, the OD value was measured by the CCK8 method to determine the IC50 reflecting drug resistance. […] Therefore, Hetumomab^+ liver cancer cells have stronger chemotherapeutic drug resistance than the parental cells and Hetumomab^− cells.

The next assay relates to Bel7402-V13 sphere cells. Nature of the assay: inhibition of cisplatin resistance (CCK-8 IC50 after antibody treatment). It is filed as cell-based, human. The settings on record: PBS-treated Bel7402-V13 sphere cells. On the procedure: (§1) Drug resistance is one of the biological features of tumor stem cells. […] Each group of cells was cultured with a medium containing 9 different concentrations, i.e., 0, 0.0625, 0.125, 0.25, 0.5, 1, 2, 4, and 8 μg/mL, of cisplatin. The complete medium containing cisplatin was replaced once every 48 hours. After 5 days, CCK-8 reagent was added according to the instructions of CCK-8 kit. OD450 absorbance values were measured, and the IC50 values for each group were calculated.

Assay [3] concerns SPCA-1 cells. Described as above. It is filed as cell-based, human. The settings on record: SPCA-1 control group. How it is done:
as §1

For assay [4], the system named is SPCA-1 transplanted tumor. The assay is described as follows: human lung cancer transplanted tumor treated with Hetumomab. It is filed as in vivo, nude mice. The settings on record: cisplatin 0.3 mg/kg, day 28. How it is done: Specifically, the sphere cells of the human lung cancer cell line SPCA-1 were harvested and inoculated in nude mice at 2.5×10^5 cells/mouse. The mice were divided into following 5 groups, with 5 mice in each group: the PBS control group; the chemotherapy group (cisplatin 0.3 mg/kg); the high dose antibody Hetumomab group (40 mg/kg); the medium dose antibody Hetumomab group (10 mg/kg); and the low dose Hetumomab group (2.5 mg/kg). The antibody treatment was started on the second day after inoculation of lung cancer cells. The experimental groups and the control group were treated by intraperitoneal injection. The treatments were performed for 28 days after inoculation. The chemotherapeutic drug group was treated twice a week. The major and minor diameters of the subcutaneously transplanted tumors were measured twice a week. The tumor volume was calculated with the formula V=(π/6)×(major diameter×minor diameter×minor diameter). The change in tumor volume in each group was observed.

The subject of assay [5] is Bel7402-V13 transplanted tumor. Nature of the assay: human liver cancer transplanted tumor treated with Hetumomab. The settings on record: cisplatin 0.3 mg/kg. It is filed as in vivo, nude mice. How it is done:
Bel7402-V13 sphere cells were inoculated subcutaneouly to nude mice at 30,000 cells/mouse. The nude mice were randomly divided into 6 groups (6 per group) as follows: the chemotherapy group (0.3 mg/kg cisplatin, 6 mice); the high dose antibody group (10 mg/kg, 6 mice); the high dose antibody+chemotherapy group (6 mice); the low dose antibody group (2.5 mg/kg, 6 mice); the low dose antibody+chemotherapy group (6 mice); and the PBS group (6 mice). The treatments were started the next day after the cells were inoculated, twice a week, and terminated after 5 weeks. The major and minor diameters of the subcutaneously transplanted tumor were measured twice a week. The tumor volume was calculated with the formula V=(π/6)×(major diameter×minor diameter×minor diameter), and the changes in tumor volume and growth rate of each group were observed. […] Tumor growth rate=(Vt−V0)/number of days, where Vt is the tumor volume at each measurement, and V0 is the tumor volume […] ([…]).

The subject of the next assay is SNU-5 transplanted tumor. Nature of the assay: human gastric cancer transplanted tumor treated with Hetumomab. Conditions: cisplatin 0.3 mg/kg, one month. It is filed as in vivo, nude mice. On the procedure:
Specifically, the sphere cells of the human gastric cancer cell line SNU-5-V13 were harvested and inoculated in nude mice at 2.5×10^5 cells/mouse. The mice were divided into following 7 groups, with 8 mice in each group: the PBS control group; the mouse IgG control group; the chemotherapy group (cisplatin 0.3 mg/kg); the high dose antibody Hetumomab group (20 mg/kg); the low dose Hetumomab group (1.25 mg/kg); the high dose Hetumomab+chemotherapeutic drug group; and the low dose Hetumomab+chemotherapeutic drug group. The antibody treatment was started on the second day after inoculation of gastric cancer cells.
The experimental groups and the control group were treated by intraperitoneal injection. The treatments were performed for one month. The chemotherapeutic drug group was treated for 4 weeks, twice a week. The major and minor diameters of the subcutaneously transplanted tumor were measured twice a week. The tumor volume was calculated with the formula V=(π/6)×(major diameter×minor diameter×minor diameter). The change in tumor volume in each group was observed.

Assay [6] has as its system Hetumomab target antigen on cells. The assay is described as follows: cell ELISA affinity of humanized chain versions. It is filed as binding, human. The settings on record: light chain mutant combined with heavy chain of Hetuximab. The source says: Based on the H1 heavy chain sequence, two other heavy chain mutants were designed as initial humanization: H2 and H3. The degree of humanization of these versions was in descending order. […] Since H1 was the most humanized version in which the framework regions were all humanized, H1 was finally determined as the preferred humanization molecular template.
Based on the L1 with fully humanized FR region, L2 and L3 were designed, and the degree of humanization of the three version was also in descending order. […] In order to find out which key amino acids were mutated during humanization, back mutations were performed, and nine different mutants (L4-L12) were prepared.
Therefore, L6, L11, and L12 were finally selected for optimization screening of the best light chain humanized version.
However, glycosylated isomers of Hetuzumab H1 heavy chain were confirmed by antibody sequence analysis and reductive electrophoresis analysis. In the analysis of H1 heavy chain expression products by electrophoresis, H1L6, H1L11, and H1L12 were all shown with weak sub-bands visible below the main band of the heavy chain. […] This may cause serious quality problems of uniformity, which is very unfavorable for drug development. […] H4 and H5 were combined with L11, respectively, and analyzed by electrophoresis after expression. […]

For the molecule `N.N.[Cl][Pt][Cl]` [cisplatin], the “Tumor Volume Inhibition Rate (%)” value in assay [1] is recorded as 14.52%; in assay [4], 24.91%; in the assay with SNU-5 transplanted tumor, 33.16%. Moreover, the IC50 of cisplatin amounted to 0.707 µg/mL in the assay with SPCA-1 cells [2] (SPCA-1 Hetumomab+ cells); 0.180 µg/mL in the assay with SPCA-1 cells [2] (SPCA-1 Hetumomab− cells); 0.513 µg/mL in the assay with SPCA-1 cells [2] (SPCA-1 Parental Cells); 0.739 µg/mL in the assay on Bel7402-V13 cells (Bel7402-V13 Hetumomab+ cells, 7 days); 0.313 µg/mL in the assay on Bel7402-V13 cells (Bel7402-V13 Hetumomab− cells); 0.502 µg/mL in the assay on Bel7402-V13 cells (Bel7402-V13 Parental Cells). The results for the “IC50 of cisplatin, control group” value with Bel7402-V13 sphere cells and in the assay on SPCA-1 cells [3] were 0.9 µg/mL and 0.351 µg/mL, respectively. The “tumor volume inhibition rate” value in assay [5] (at drug withdrawal after 5 weeks) stood at 83.5%; in [5] (one month after drug withdrawal), 48.6%. In addition, in [5] (month after drug withdrawal), the tumor growth rate is given as 0.154 cm^3/day.

B1: L11: humanized light chain version L11 (SEQ ID NO:47), higher humanized version based on L6 (protein)
light: DIVMTQTPFSNPVTLGQPASISCRSSKSLLHSNGITYLYWFLQKPGQSPQLLIYQMSNLASGVPDRFSGSGSGTDFTLKISRVEAEDVGVYYCAQNLELYTFGQGTKVEIKRTVAAPSVFIFPPSDEQLKSGTASVVCLLNNFYPREAKVQWKVDNALQSGNSQESVTEQDSKDSTYSLSSTLTLSKADYEKHKVYACEVTHQGLSSPVTKSFNRGEC
modifications: Humanized light chain L11
With B1, in assay [6], the “affinity by cellular ELISA” value is given as “close to that of L6”.
